Reference: patent US4550170A, “6-Phenyl-2,3,5,6-tetrahydroimidazo-[2,1-b]-thiazole derivatives” (Institut Organicheskoi Khimii Akademii Nauk Ukrainskoi SSR, priority 1984, dated 1985)
Counter-ions that a name gives are not always drawn. Like-named read-outs stand apart in the source and are kept apart here.

Tests used:
in vivo [1] = details: mouse, sc
[2] = physical properties of the compounds; type: physicochemical
[3] = system: IgE antibodies in respiratory organs
Protocol: The local production of IgE-antibodies in trachea and lungs of rats of the lines WAY, August with a mass of 250-300 g was induced by means of a successive (with the interval of 40 minutes) dropping a 0.1% solution of histamine and ambrosia allergen (10,000 PNU/ml) into both nasal passages. […] One day after the administration of the allergen IgE-antibodies were determined in homogenates of trachea and lungs prepared at the rate of 0.1 ml of a physiological solution per 10 mg of the tissue by the method of indirect degranulation of obese cells.

[4] = system: delayed-type hypersensitivity reaction; assay: delayed-type hypersensitivity reaction to 2,4-dinitrochlorobenzene in guinea pigs; type: in vivo
[5] = system: delayed-type hypersensitivity reaction; assay: delayed-type hypersensitivity reaction to rat's thymocytes in mice (popliteal lymph nodes); type: in vivo; details: for effect on the development of the delayed-type hypersensitivity reactions: Table 3 (mice and guinea pigs)
[6] = system: allergic reaction of the delayed type in mice; assay: delayed-type (contact) hypersensitivity reaction to dinitrochlorobenzene, ear thickness in mice; type: in vivo, CBA mice; details: for Ear thickness, Control, Average value / Ear thickness, Control, Range of fluctuations: control (right) ear; for Ear thickness, Experiment, Average value / Ear thickness, Experiment, Range of fluctuations: test (left) ear; for dose sufficient for inhibition of the contact hypersensitivity, lower than that of levamizole: ratio to levamizole
[7] = system: virus of vesicular stomatitis; type: cell-based
human tonsillocytes [8] = assay: natural cytotoxicity (natural killers) of human tonsillocytes, 51Cr release; type: cell-based; details: for Yield of 51Cr from target cells, natural cytotoxicity, average value: (III) significant P below 0.05
From the text: (§1) The cytolytic effect of tonsillocytes was studied by the radioisotope method using Cr^51. On doing so, the deterioration of target cells (chicken's erythrocytes) by tonsil lymphocytes was regarded as spontaneous cytolysis, while the destruction of the target cells loaded, in addition to the isotopic tracer, with homologous antibodies in the sublytic dose was considered as antibody-dependent cytolysis. […] Afterwards they were twice washed by means of Medium 199 using centrifugation (105 g, 10 minutes). […] The degree of destruction of the target cells was determined radiometrically by the outcome of Cr^51 into the liquid phase.

immune system = details: prior art; cited from earlier work
splenocytes = assay: effect on cyclic nucleotides (c-AMP, c-GMP) and phosphodiesterase of c-AMP; type: cell-based
human tonsillocytes [9] = assay: antibody-dependent cytotoxicity of human tonsillocytes, 51Cr release; type: cell-based; details: for minimal effective concentration: Homo sapiens, read-out: concentration stimulating the antibody-dependent cytolytic activity
From the text: as §1, with “On this basis, the effect of one of the lest toxic compound (III) out of those of the present invention was studied for the antibody-dependent cytolytic activity of cells. […] The cytolytic” for “The cytolytic”

[10] = system: Staphylococcus aureus, Proteum, Bacillus pyocyanes; assay: antibacterial activity in vitro, serial dilutions; type: cell-based; details: relative to compound (II)
Protocol: In the experiments in vitro the antibacterial activity of the compounds of the present invention was studied. To this end, serial dilutions of compounds (II) and (III) with a concentration of from 1% to 0.00001% were prepared and 0.1 ml of a microbal suspension was added thereto (Staphylococcus aureus, Proteum, Bacillus pyocyanes). The microbal load for staphylococcus was about 1×10^5 cells/ml, for Proteum and Bacillus pyocyanes -1×10^4 c cells/ml. […] The bacteria were incubated along with the compounds according to the present invention at the temperature of 37° C. […] Inoculations were effected by spreading 0.1 ml of a suspension of bacteria in a corresponding dilution of the compounds over the surface of an agar dish using a glass spatula.

[11] = prior art, hydrochloride, cited from earlier work
in vivo [12] = details: rabbit
in vivo [13] = details: rat, rats
[14] = 100 μg/ml, certainty: (II), (III) below 0.05, (I), levamizole above 0.05
[15] = 500 μg/ml, certainty: all below 0.05
[16] = 100 μg/ml, negative = test value exceeded the control
[17] = second levamizole line, printed 2.5 mg/kg
[18] = 1 μg/ml, (III) significant P below 0.05
[19] = 10 μg/ml, (III) significant P below 0.05
[20] = 100 μg/ml, levamizole significant P below 0.05

## COC(=O)C[N+]1=C2SCCN2CC1c1ccccc1 (centres unmarked) [Compound (I), 2,3,5,6-tetrahydro-6-phenyl-7-methoxycarbonylmethylimidazo-[2,1-b]-thiazolium bromide]
In vivo [1]
  LD50: 262 mg/kg
[2]
  solubility in acetone: sparingly soluble
  solubility in benzene: sparingly soluble
  solubility in lower alcohols: soluble
  solubility in water: soluble
[3]; [14]
  Percent of degranulated mastocytes, Lungs: 19.4 ± 1.8%
  Percent of degranulated mastocytes, Trachea: 17.8 ± 1.3%
[3]; [15]
  Percent of degranulated mastocytes, Lungs: 9.3 ± 0.8%
  Percent of degranulated mastocytes, Trachea: 7.0 ± 0.2%
[4]; [16]
  Difference in temperature of the pad surfaces, Average value: -1.5 ± 0.27 °C
  Difference in thickness of control and test talipes, Average value: -0.6 ± 0.062 mm
[5]; [16]
  Difference in masses of popliteal lymph nodes in the control and test limb, Average value: -1.1 ± 0.08 mg
[5]; 500 μg/ml
  Difference in masses of popliteal lymph nodes in the control and test limb, Average value: +1.3 ± 0.2 mg

## c1ccc([C@H]2CN3CCSC3=N2)cc1 [levamizole, L-(-)-2,3,5,6-tetrahydro-6-phenylimidazo-[2,1-b]-thiazole hydrochloride, reference compound]
[6]; 2.5 mg/kg per os
  Ear thickness, Control, Average value: 162.3 μm
  Ear thickness, Control, Range of fluctuations: 130-200 μm
  Ear thickness, Experiment, Average value: 210.0 μm
  Ear thickness, Experiment, Range of fluctuations: 160-280 μm
[6]; per os
  dose inhibiting the development of the contact hypersensitivity: 25 mg/kg
[6]; [17]
  Ear thickness, Control, Average value: 179.2 μm
  Ear thickness, Control, Range of fluctuations: 160-190 μm
  Ear thickness, Experiment, Average value: 179.2 μm
  Ear thickness, Experiment, Range of fluctuations: 170-190 μm
[7]; 1 μg/ml
  Degree of inhibition of the virus reproduction: 0 times
[7]; 10 μg/ml
  Degree of inhibition of the virus reproduction: 10 times
Human tonsillocytes [8]; 1 μg/ml
  Yield of 51Cr from target cells, natural cytotoxicity, range of fluctuations: 3.0-41.0%
  Yield of 51Cr from target cells, natural cytotoxicity, average value: 16.2%
Human tonsillocytes [8]; 10 μg/ml
  Yield of 51Cr from target cells, natural cytotoxicity, range of fluctuations: 5.0-53.0%
  Yield of 51Cr from target cells, natural cytotoxicity, average value: 18.4%
Human tonsillocytes [8]; 100 μg/ml
  Yield of 51Cr from target cells, natural cytotoxicity, range of fluctuations: 5.0-49.0%
  Yield of 51Cr from target cells, natural cytotoxicity, average value: 20.5%
Human tonsillocytes [8]; levamizole
  activity of natural killers of tonsil cells: not noticeably changed
Immune system
  effect in respect of various immunological responses: stimulating effect in respect of various immunological responses
splenocytes
  concentrations of c-AMP and c-GMP: reciprocal variations of concentrations of c-AMP and c-GMP
Human tonsillocytes [9]; 1 μg/ml
  Yield of 51Cr from target cells, antibody dependent cytotoxicity, range of fluctuations: 1.0-32.0%
Human tonsillocytes [9]; [18]
  Yield of 51Cr from target cells, antibody dependent cytotoxicity, average: 14.0%
Human tonsillocytes [9]; 10 μg/ml
  Yield of 51Cr from target cells, antibody dependent cytotoxicity, range of fluctuations: 1.0-36.0%
Human tonsillocytes [9]; [19]
  Yield of 51Cr from target cells, antibody dependent cytotoxicity, average: 14.2%
Human tonsillocytes [9]; 100 μg/ml
  Yield of 51Cr from target cells, antibody dependent cytotoxicity, range of fluctuations: 8.0-39.0%
Human tonsillocytes [9]; [20]
  Yield of 51Cr from target cells, antibody dependent cytotoxicity, average: 22.8%
Human tonsillocytes [9]
  minimal effective concentration: 100 µg/mL
[3]; [14]
  Percent of degranulated mastocytes, Lungs: 18.1 ± 1.9%
  Percent of degranulated mastocytes, Trachea: 17.3 ± 1.8%
[3]; [15]
  Percent of degranulated mastocytes, Lungs: 6.1 ± 1.1%
  Percent of degranulated mastocytes, Trachea: 7.4 ± 0.2%
[3]; rat, in vivo
  concentration inhibiting the formation of the IgE-antibodies in the respiratory organs: 500 µg/mL
[10]
  antibacterial activity lower by a factor of: 2
[11]
  toxicity and side effects: high toxicity and a high frequency of the observed side effects
[11]; listed as Levamizole
  toxicity and side effects: toxic and has diverse side effects
[4]; [16]
  Difference in temperature of the pad surfaces, Average value: -1.3 ± 0.06 °C
  Difference in thickness of control and test talipes, Average value: -0.75 ± 0.08 mm
[4]; 1,000 μg/ml
  Difference in temperature of the pad surfaces, Average value: +1.1 ± 0.11 °C
  Difference in thickness of control and test talipes, Average value: +0.51 ± 0.064 mm
[5]; 100 μg/ml
  effect on the development of the delayed-type hypersensitivity reactions: surely stimulates
[5]; [16]
  Difference in masses of popliteal lymph nodes in the control and test limb, Average value: -0.9 ± 0.13 mg
[5]; 500 μg/ml
  Difference in masses of popliteal lymph nodes in the control and test limb, Average value: +1.0 ± 0.13 mg
[5]; 1,000 μg/ml
  Difference in masses of popliteal lymph nodes in the control and test limb, Average value: +1.2 ± 0.12 mg
[5]; 500 and 1,000 μg/ml
  effect on the development of the delayed-type hypersensitivity reactions: effectively inhinits

## NC(=O)C[N+]1=C2SCCN2CC1c1ccccc1 (centres unmarked) [Compound (III), 2,3,5,6-tetrahydro-6-phenyl-7-carbamoylmethylimidazo-[2,1-b]-thiazolium bromide]
[6]; 2.5 mg/kg per os
  Ear thickness, Control, Average value: 176.7 μm
  Ear thickness, Control, Range of fluctuations: 110-210 μm
  Ear thickness, Experiment, Average value: 184.4 μm
  Ear thickness, Experiment, Range of fluctuations: 110-220 μm
[6]; 25 mg/kg per os
  Ear thickness, Control, Average value: 184.4 μm
  Ear thickness, Control, Range of fluctuations: 170-200 μm
  Ear thickness, Experiment, Average value: 190.0 μm
  Ear thickness, Experiment, Range of fluctuations: 170-200 μm
[6]
  dose sufficient for inhibition of the contact hypersensitivity, lower than that of levamizole: 10 times
[7]; 1 μg/ml
  Degree of inhibition of the virus reproduction: 10 times
[7]; 10 μg/ml
  Degree of inhibition of the virus reproduction: 100 times
Human tonsillocytes [8]; 1 μg/ml
  Yield of 51Cr from target cells, natural cytotoxicity, range of fluctuations: 7.0-60.0%
  Yield of 51Cr from target cells, natural cytotoxicity, average value: 30.6%
Human tonsillocytes [8]; 10 μg/ml
  Yield of 51Cr from target cells, natural cytotoxicity, range of fluctuations: 7.0-42.0%
  Yield of 51Cr from target cells, natural cytotoxicity, average value: 28.8%
Human tonsillocytes [8]; 100 μg/ml
  Yield of 51Cr from target cells, natural cytotoxicity, range of fluctuations: 1.0-40.0%
  Yield of 51Cr from target cells, natural cytotoxicity, average value: 24.8%
In vivo [1]
  LD50: 1020 mg/kg
In vivo [12]; po
  LD50: 3330 mg/kg
In vivo [12]; sc
  LD50: 317 mg/kg
[2]
  solubility in acetone: only slightly soluble
  solubility in benzene: only slightly soluble
  solubility in lower alcohols: well soluble
  solubility in water: well soluble
Human tonsillocytes [9]; 1 μg/ml
  Yield of 51Cr from target cells, antibody dependent cytotoxicity, range of fluctuations: 10.0-57.0%
Human tonsillocytes [9]; [18]
  Yield of 51Cr from target cells, antibody dependent cytotoxicity, average: 23.2%
Human tonsillocytes [9]; 10 μg/ml
  Yield of 51Cr from target cells, antibody dependent cytotoxicity, range of fluctuations: 13.0-36.0%
Human tonsillocytes [9]; [19]
  Yield of 51Cr from target cells, antibody dependent cytotoxicity, average: 22.6%
Human tonsillocytes [9]; 100 μg/ml
  Yield of 51Cr from target cells, antibody dependent cytotoxicity, range of fluctuations: 4.0-40.0%
Human tonsillocytes [9]; [20]
  Yield of 51Cr from target cells, antibody dependent cytotoxicity, average: 19.1%
Human tonsillocytes [9]
  minimal effective concentration: 1 to 10 µg/mL
Human tonsillocytes [9]; ratio to levamizole
  stimulating concentration lower as compared to levamizole, antibody-dependent cytolytic activity: 10-100 times
[3]; [14]
  Percent of degranulated mastocytes, Lungs: 10.6 ± 3.9%
  Percent of degranulated mastocytes, Trachea: 9.1 ± 2.1%
[3]; [15]
  Percent of degranulated mastocytes, Lungs: 6.1 ± 1.1%
  Percent of degranulated mastocytes, Trachea: 7.1 ± 1.7%
[10]
  antibacterial activity lower by a factor of: 2
In vivo [13]; po, LD50 upon peroral administration, female
  LD50: 3500 mg/kg
In vivo [13]; po, LD50 upon peroral administration, male
  LD50: 5750 mg/kg
In vivo [13]; sc, LD50 upon subcutaneous injection, female
  LD50: 1420 mg/kg
In vivo [13]; sc, LD50 upon subcutaneous injection, male
  LD50: 2580 mg/kg

## CCCCCCCCCCOC(=O)C[N+]1=C2SCCN2CC1c1ccccc1 (centres unmarked) [Compound (II), 2,3,5,6-tetrahydro-6-phenyl-7-decyloxycarbonylmethylimidazo-[2,1-b]-thiazolium bromide]
[6]; 2.5 mg/kg per os
  Ear thickness, Control, Average value: 202.2 μm
  Ear thickness, Control, Range of fluctuations: 150-250 μm
  Ear thickness, Experiment, Average value: 222.8 μm
  Ear thickness, Experiment, Range of fluctuations: 175-300 μm
[6]; 25 mg/kg per os
  Ear thickness, Control, Average value: 178.9 μm
  Ear thickness, Control, Range of fluctuations: 150-240 μm
  Ear thickness, Experiment, Average value: 184.4 μm
  Ear thickness, Experiment, Range of fluctuations: 170-240 μm
[6]
  dose sufficient for inhibition of the contact hypersensitivity, lower than that of levamizole: 10 times
[7]; 1 μg/ml
  Degree of inhibition of the virus reproduction: 10 times
[7]; 10 μg/ml
  Degree of inhibition of the virus reproduction: 100 times
In vivo [1]
  LD50: 167 mg/kg
[2]
  solubility in lower alcohols: soluble
  solubility in water: soluble
[3]; [14]
  Percent of degranulated mastocytes, Lungs: 6.8 ± 0.9%
  Percent of degranulated mastocytes, Trachea: 15.0 ± 1.8%
[3]; [15]
  Percent of degranulated mastocytes, Lungs: 6.5 ± 0.9%
  Percent of degranulated mastocytes, Trachea: 3.5 ± 1.2%
[4]; 1,000 μg/ml
  Difference in temperature of the pad surfaces, Average value: +1.2 ± 0.16 °C
  Difference in thickness of control and test talipes, Average value: +0.63 ± 0.09 mm
[5]; 1,000 μg/ml
  Difference in masses of popliteal lymph nodes in the control and test limb, Average value: +1.3 ± 0.29 mg
